Columns and labels:
Assay in all cases: KINOMEscan binding assay
[1] = molecular target: RPS6KA5(Kin.Dom.2-C-terminal) (Homo sapiens, UniProt O75582); conditions: read-out: % Retention on Solid Support
Summary of the method: (§1)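 Competitive displacement at the ATP site served as the measure. Over 400 kinases were included, each exposed to i-CDK9 at 1 and at 10 µM.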

CHEK1 = molecular target: T1, CHEK1 (Homo sapiens, UniProt O14757)
T1 construct: purchased DiscoveRx KINOMEscan
Summary of the method: as §1

EPHB3 = molecular target: T2, EPHB3 (Homo sapiens, UniProt P54753); conditions: read-out: % Retention on Solid Support
T2 construct: purchased DiscoveRx KINOMEscan
T2 sequence (P54753 34-998): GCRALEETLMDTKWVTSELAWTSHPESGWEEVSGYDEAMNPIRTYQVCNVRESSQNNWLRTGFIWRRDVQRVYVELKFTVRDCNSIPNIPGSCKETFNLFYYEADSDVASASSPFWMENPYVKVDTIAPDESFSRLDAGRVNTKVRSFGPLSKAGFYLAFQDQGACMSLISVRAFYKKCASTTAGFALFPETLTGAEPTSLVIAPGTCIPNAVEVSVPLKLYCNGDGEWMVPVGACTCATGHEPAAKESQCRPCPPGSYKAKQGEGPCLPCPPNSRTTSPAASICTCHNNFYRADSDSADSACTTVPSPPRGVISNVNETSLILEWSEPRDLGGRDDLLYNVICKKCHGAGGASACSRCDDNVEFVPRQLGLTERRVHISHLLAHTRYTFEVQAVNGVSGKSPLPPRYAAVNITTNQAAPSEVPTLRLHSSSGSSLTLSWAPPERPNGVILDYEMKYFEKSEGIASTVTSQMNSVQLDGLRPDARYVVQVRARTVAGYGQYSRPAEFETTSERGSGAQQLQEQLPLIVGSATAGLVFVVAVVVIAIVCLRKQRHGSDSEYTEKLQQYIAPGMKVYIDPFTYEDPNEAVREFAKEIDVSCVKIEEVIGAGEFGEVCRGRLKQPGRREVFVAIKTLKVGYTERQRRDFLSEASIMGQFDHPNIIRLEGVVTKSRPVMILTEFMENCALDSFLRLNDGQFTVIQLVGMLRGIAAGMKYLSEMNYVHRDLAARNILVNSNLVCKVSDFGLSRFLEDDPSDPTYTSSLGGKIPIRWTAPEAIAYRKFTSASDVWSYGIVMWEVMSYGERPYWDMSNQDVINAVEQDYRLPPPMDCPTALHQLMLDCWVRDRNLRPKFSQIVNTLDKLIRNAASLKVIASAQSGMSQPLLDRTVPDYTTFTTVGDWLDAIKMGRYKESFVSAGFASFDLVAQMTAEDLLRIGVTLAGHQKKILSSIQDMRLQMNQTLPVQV
Summary of the method: as §1

LIMK1 = molecular target: T3, LIMK1 (Homo sapiens, UniProt P53667); conditions: read-out: % Retention on Solid Support
T3 construct: purchased DiscoveRx KINOMEscan
Summary of the method: as §1

IRAK3 = molecular target: T4, IRAK3 (Homo sapiens, UniProt Q9Y616); conditions: read-out: % Retention on Solid Support
T4 construct: purchased DiscoveRx KINOMEscan
Summary of the method: as §1

CDK4-cyclinD1 = molecular target: T5, CDK4-cyclinD1 (Homo sapiens, UniProt P11802); conditions: 1 µM i-CDK9; read-out: % Retention on Solid Support
T5 construct: purchased DiscoveRx KINOMEscan
Summary of the method: as §1

ULK3 = molecular target: T6, ULK3 (Homo sapiens, UniProt Q6PHR2)
T6 construct: purchased DiscoveRx KINOMEscan
Summary of the method: as §1

JNK3 = molecular target: T7, JNK3 (Homo sapiens, UniProt P53779)
T7 construct: purchased DiscoveRx KINOMEscan
Summary of the method: as §1

[2] = molecular target: T8, RSK3(Kin.Dom.2-C-terminal) (Homo sapiens, UniProt Q15349); conditions: read-out: % Retention on Solid Support
T8 construct: RSK3(Kin.Dom.2-C-terminal); purchased DiscoveRx KINOMEscan
Summary of the method: as §1

FGFR2 = molecular target: T9, FGFR2 (Homo sapiens, UniProt P21802); conditions: read-out: % Retention on Solid Support
T9 construct: purchased DiscoveRx KINOMEscan
Summary of the method: as §1

[3] = molecular target: T10, RPS6KA4(Kin.Dom.1-N-terminal) (Homo sapiens, UniProt O75676); conditions: read-out: % Retention on Solid Support
T10 construct: RPS6KA4(Kin.Dom.1-N-terminal); purchased DiscoveRx KINOMEscan
Summary of the method: as §1

MEK2 = molecular target: T11, MEK2 (Homo sapiens, UniProt P36507); conditions: read-out: % Retention on Solid Support
T11 construct: purchased DiscoveRx KINOMEscan
Summary of the method: as §1

BRAF = molecular target: T12, BRAF (Homo sapiens, UniProt P15056); conditions: read-out: % Retention on Solid Support
T12 construct: purchased DiscoveRx KINOMEscan
Summary of the method: as §1

PDGFRB = molecular target: T13, PDGFRB (Homo sapiens, UniProt P09619); conditions: read-out: % Retention on Solid Support
T13 construct: purchased DiscoveRx KINOMEscan
T13 sequence (P09619 33-1106): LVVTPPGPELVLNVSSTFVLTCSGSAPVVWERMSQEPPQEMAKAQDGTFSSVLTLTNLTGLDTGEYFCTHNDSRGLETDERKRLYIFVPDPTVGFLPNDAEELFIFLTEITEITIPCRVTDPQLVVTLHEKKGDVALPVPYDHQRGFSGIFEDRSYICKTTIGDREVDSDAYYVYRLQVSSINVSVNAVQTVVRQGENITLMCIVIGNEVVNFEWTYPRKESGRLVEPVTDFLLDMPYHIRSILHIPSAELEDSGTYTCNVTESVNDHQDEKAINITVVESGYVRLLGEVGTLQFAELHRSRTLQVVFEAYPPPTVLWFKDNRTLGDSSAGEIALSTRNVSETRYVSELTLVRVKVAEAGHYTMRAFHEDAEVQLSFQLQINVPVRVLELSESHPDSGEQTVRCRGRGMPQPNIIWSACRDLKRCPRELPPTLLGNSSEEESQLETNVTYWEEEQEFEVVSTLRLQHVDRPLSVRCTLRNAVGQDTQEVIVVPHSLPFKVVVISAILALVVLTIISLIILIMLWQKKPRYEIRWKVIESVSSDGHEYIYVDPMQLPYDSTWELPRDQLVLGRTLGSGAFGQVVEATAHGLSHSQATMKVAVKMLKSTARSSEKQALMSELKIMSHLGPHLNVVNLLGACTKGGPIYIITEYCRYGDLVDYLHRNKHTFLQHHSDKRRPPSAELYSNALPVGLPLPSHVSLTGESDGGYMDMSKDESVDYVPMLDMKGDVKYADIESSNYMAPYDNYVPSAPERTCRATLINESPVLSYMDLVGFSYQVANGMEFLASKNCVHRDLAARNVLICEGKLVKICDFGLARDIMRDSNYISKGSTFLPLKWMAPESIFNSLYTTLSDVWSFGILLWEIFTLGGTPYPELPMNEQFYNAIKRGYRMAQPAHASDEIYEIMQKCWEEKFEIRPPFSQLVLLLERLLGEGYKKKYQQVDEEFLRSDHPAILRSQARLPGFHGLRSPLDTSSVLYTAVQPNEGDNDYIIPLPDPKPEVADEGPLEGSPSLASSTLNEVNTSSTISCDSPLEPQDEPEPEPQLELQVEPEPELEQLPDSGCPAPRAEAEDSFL
Summary of the method: as §1

MEK1 = molecular target: T14, MEK1 (Homo sapiens, UniProt Q02750); conditions: read-out: % Retention on Solid Support
T14 construct: purchased DiscoveRx KINOMEscan
T14 sequence (Q02750 whole entry): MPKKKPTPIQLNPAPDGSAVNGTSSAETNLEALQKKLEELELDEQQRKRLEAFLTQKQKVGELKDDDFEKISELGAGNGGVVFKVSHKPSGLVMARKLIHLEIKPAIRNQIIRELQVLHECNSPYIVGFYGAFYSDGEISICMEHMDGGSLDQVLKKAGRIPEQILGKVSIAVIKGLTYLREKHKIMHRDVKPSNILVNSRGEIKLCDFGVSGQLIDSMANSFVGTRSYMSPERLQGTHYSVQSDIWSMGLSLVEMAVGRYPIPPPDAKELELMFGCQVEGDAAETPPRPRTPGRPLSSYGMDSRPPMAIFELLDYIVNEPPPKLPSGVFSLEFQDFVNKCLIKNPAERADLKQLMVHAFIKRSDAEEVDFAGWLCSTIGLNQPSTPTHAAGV
Summary of the method: as §1

[4] = molecular target: T15, ABL1(F317L)-phosphorylated (Homo sapiens, UniProt P00519, F317L); conditions: 1 µM i-CDK9; read-out: % Retention on Solid Support
T15 construct: purchased DiscoveRx KINOMEscan
Summary of the method: as §1

KIT = molecular target: T16, KIT (Homo sapiens, UniProt P10721); conditions: read-out: % Retention on Solid Support
T16 construct: purchased DiscoveRx KINOMEscan
Summary of the method: as §1

LATS2 = molecular target: T17, LATS2 (Homo sapiens, UniProt Q9NRM7)
T17 construct: purchased DiscoveRx KINOMEscan
T17 sequence (Q9NRM7 whole entry): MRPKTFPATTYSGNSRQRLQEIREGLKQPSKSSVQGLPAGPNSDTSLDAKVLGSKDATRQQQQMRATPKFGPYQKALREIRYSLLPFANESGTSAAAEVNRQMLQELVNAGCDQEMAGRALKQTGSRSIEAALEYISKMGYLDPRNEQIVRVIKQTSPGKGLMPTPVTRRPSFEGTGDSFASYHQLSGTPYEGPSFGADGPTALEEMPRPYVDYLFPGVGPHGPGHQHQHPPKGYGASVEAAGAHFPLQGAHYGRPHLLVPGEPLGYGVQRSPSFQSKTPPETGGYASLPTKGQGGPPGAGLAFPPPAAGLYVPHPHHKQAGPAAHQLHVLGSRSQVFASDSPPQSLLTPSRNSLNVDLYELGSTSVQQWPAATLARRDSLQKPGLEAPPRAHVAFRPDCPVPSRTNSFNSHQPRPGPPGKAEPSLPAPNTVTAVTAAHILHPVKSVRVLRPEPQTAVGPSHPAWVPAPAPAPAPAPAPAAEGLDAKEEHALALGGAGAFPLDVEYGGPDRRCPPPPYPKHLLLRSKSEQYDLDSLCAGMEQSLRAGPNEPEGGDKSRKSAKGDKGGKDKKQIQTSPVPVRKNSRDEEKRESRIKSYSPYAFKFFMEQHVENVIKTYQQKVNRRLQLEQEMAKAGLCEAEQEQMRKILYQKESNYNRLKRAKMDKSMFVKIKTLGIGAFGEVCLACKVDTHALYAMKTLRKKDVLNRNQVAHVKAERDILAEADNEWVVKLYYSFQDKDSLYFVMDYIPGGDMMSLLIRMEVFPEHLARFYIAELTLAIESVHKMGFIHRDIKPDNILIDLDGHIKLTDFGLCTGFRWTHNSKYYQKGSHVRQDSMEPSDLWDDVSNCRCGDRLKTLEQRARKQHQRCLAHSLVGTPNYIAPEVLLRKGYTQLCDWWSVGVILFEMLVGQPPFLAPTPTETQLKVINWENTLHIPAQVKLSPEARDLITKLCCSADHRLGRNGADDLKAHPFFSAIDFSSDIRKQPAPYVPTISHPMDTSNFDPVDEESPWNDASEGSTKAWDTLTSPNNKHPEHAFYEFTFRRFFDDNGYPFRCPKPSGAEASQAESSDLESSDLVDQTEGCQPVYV
Summary of the method: as §1

DCAMKL2 = molecular target: T18, DCAMKL2 (Homo sapiens, UniProt Q8N568); conditions: read-out: % Retention on Solid Support
T18 construct: purchased DiscoveRx KINOMEscan
T18 sequence (Q8N568 whole entry): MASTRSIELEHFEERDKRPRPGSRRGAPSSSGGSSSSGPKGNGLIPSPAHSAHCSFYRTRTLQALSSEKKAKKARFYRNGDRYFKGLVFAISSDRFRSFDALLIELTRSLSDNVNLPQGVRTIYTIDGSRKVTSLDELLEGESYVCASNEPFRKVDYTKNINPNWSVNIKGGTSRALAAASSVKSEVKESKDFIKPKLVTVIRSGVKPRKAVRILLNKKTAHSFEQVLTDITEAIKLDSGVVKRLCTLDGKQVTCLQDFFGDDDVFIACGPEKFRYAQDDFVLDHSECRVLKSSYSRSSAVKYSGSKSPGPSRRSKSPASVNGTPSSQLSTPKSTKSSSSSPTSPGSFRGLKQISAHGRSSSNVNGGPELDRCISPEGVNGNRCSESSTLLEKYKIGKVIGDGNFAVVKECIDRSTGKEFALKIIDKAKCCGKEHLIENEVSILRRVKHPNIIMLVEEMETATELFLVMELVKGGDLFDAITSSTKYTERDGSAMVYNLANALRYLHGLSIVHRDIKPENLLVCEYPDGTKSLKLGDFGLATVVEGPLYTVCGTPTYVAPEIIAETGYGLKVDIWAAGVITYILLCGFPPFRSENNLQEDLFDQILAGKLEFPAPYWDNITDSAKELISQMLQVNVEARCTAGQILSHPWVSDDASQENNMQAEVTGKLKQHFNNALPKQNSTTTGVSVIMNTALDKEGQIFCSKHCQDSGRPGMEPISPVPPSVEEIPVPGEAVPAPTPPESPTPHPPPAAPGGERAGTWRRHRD
Summary of the method: as §1

PRKCH = molecular target: T19, PRKCH (Homo sapiens, UniProt P24723); conditions: read-out: % Retention on Solid Support
T19 construct: purchased DiscoveRx KINOMEscan
Summary of the method: as §1

TXK = molecular target: T20, TXK (Homo sapiens, UniProt P42681); conditions: read-out: % Retention on Solid Support
T20 construct: purchased DiscoveRx KINOMEscan
Summary of the method: as §1

CSNK1A1 = molecular target: T21, CSNK1A1 (Homo sapiens, UniProt P48729); conditions: 1 µM i-CDK9; read-out: % Retention on Solid Support
T21 construct: purchased DiscoveRx KINOMEscan
Summary of the method: as §1

PHKG2 = molecular target: T22, PHKG2 (Homo sapiens, UniProt P15735); conditions: read-out: % Retention on Solid Support
T22 construct: purchased DiscoveRx KINOMEscan
Summary of the method: as §1

PIK3CA(E542K) = molecular target: T23, PIK3CA(E542K) (Homo sapiens, UniProt P42336, E542K); conditions: read-out: % Retention on Solid Support
T23 construct: purchased DiscoveRx KINOMEscan
Summary of the method: as §1

NEK3 = molecular target: T24, NEK3 (Homo sapiens, UniProt P51956); conditions: 1 µM i-CDK9; read-out: % Retention on Solid Support
T24 construct: purchased DiscoveRx KINOMEscan
Summary of the method: as §1

PIP5K2B = molecular target: T25, PIP5K2B (Homo sapiens, UniProt P78356); conditions: read-out: % Retention on Solid Support
T25 construct: purchased DiscoveRx KINOMEscan
Summary of the method: as §1

p38-alpha = molecular target: T26, p38-alpha (Homo sapiens, UniProt Q16539)
T26 construct: purchased DiscoveRx KINOMEscan
T26 sequence (Q16539 whole entry): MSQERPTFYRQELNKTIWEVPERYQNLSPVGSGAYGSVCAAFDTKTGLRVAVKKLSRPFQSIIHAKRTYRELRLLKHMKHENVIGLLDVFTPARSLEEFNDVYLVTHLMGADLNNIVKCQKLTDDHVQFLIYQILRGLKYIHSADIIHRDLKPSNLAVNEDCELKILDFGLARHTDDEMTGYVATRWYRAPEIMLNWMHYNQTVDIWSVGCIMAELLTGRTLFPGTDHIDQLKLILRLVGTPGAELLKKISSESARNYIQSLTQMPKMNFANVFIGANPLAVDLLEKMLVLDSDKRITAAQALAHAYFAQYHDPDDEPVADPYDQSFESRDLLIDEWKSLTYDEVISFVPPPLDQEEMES
Summary of the method: as §1

[5] = molecular target: T27, JAK3(JH1domain-catalytic) (Homo sapiens, UniProt P52333); conditions: read-out: % Retention on Solid Support
T27 construct: JAK3(JH1domain-catalytic); purchased DiscoveRx KINOMEscan
Summary of the method: as §1

CDKL3 = molecular target: T28, CDKL3 (Homo sapiens, UniProt Q8IVW4); conditions: read-out: % Retention on Solid Support
T28 construct: purchased DiscoveRx KINOMEscan
Summary of the method: as §1

Chain of RPS6KA5(Kin.Dom.2-C-terminal) (O75582 388-802 limits assumed): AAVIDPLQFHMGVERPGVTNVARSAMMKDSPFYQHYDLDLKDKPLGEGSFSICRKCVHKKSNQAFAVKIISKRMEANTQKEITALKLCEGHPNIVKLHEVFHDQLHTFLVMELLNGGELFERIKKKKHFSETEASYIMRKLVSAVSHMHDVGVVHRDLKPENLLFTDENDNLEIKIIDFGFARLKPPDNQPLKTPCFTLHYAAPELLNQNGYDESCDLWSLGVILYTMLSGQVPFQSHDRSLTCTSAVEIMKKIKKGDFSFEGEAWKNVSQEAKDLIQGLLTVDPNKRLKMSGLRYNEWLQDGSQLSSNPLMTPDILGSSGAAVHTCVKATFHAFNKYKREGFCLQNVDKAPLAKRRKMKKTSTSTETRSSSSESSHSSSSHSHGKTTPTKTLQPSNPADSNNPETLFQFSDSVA

N[C@H]1CC[C@H](Nc2cc(-c3cccc(NCc4cccc(F)c4)n3)c(Cl)cn2)CC1 [i-CDK9, N2′-(trans-4-aminocyclohexyl)-5′-chloro-N6-(3-fluorobenzyl)-2,4′-bipyridine-2′,6-diamine]
remaining binding at 1 µM ([1]; 1 µM i-CDK9): 100% | remaining binding at 10 µM ([1]; 10 µM i-CDK9): 100% | % Retention on Solid Support (CHEK1; 1 µM i-CDK9): 100% | % Retention on Solid Support (CHEK1; 10 µM i-CDK9): 82% | remaining binding at 1 µM (EPHB3; 1 µM i-CDK9): 100% | remaining binding at 10 µM (EPHB3; 10 µM i-CDK9): 95% | remaining binding at 1 µM (LIMK1; 1 µM i-CDK9): 90% | remaining binding at 10 µM (LIMK1; 10 µM i-CDK9): 100% | remaining binding at 1 µM (IRAK3; 1 µM i-CDK9): 100% | remaining binding at 10 µM (IRAK3; 10 µM i-CDK9): 88% | remaining binding at 1 µM (CDK4-cyclinD1): 100% | % Retention on Solid Support (ULK3; 1 µM i-CDK9): 94% | % Retention on Solid Support (ULK3; 10 µM i-CDK9): 88% | % Retention on Solid Support (JNK3; 1 µM i-CDK9): 94% | % Retention on Solid Support (JNK3; 10 µM i-CDK9): 34% | remaining binding at 1 µM ([2]; 1 µM i-CDK9): 73% | remaining binding at 10 µM ([2]; 10 µM i-CDK9): 100% | remaining binding at 1 µM (FGFR2; 1 µM i-CDK9): 97% | remaining binding at 10 µM (FGFR2; 10 µM i-CDK9): 100% | remaining binding at 1 µM ([3]; 1 µM i-CDK9): 48% | remaining binding at 10 µM ([3]; 10 µM i-CDK9): 84% | remaining binding at 1 µM (MEK2; 1 µM i-CDK9): 96% | remaining binding at 10 µM (MEK2; 10 µM i-CDK9): 100% | remaining binding at 1 µM (BRAF; 1 µM i-CDK9): 100% | remaining binding at 10 µM (BRAF; 10 µM i-CDK9): 70% | remaining binding at 1 µM (PDGFRB; 1 µM i-CDK9): 74% | remaining binding at 10 µM (PDGFRB; 10 µM i-CDK9): 100% | remaining binding at 1 µM (MEK1; 1 µM i-CDK9): 100% | remaining binding at 10 µM (MEK1; 10 µM i-CDK9): 100% | remaining binding at 1 µM [4]: 100% | remaining binding at 1 µM (KIT; 1 µM i-CDK9): 91% | remaining binding at 10 µM (KIT; 10 µM i-CDK9): 100% | % Retention on Solid Support (LATS2; 1 µM i-CDK9): 100% | % Retention on Solid Support (LATS2; 10 µM i-CDK9): 100% | remaining binding at 1 µM (DCAMKL2; 1 µM i-CDK9): 100% | remaining binding at 10 µM (DCAMKL2; 10 µM i-CDK9): 65% | remaining binding at 1 µM (PRKCH; 1 µM i-CDK9): 83% | remaining binding at 10 µM (PRKCH; 10 µM i-CDK9): 80% | remaining binding at 1 µM (TXK; 1 µM i-CDK9): 100% | remaining binding at 10 µM (TXK; 10 µM i-CDK9): 100% | remaining binding at 1 µM (CSNK1A1): 69% | remaining binding at 1 µM (PHKG2; 1 µM i-CDK9): 100% | remaining binding at 10 µM (PHKG2; 10 µM i-CDK9): 72% | remaining binding at 1 µM (PIK3CA(E542K); 1 µM i-CDK9): 100% | remaining binding at 10 µM (PIK3CA(E542K); 10 µM i-CDK9): 100% | remaining binding at 1 µM (NEK3): 100% | remaining binding at 1 µM (PIP5K2B; 1 µM i-CDK9): 100% | remaining binding at 10 µM (PIP5K2B; 10 µM i-CDK9): 77% | % Retention on Solid Support (p38-alpha; 1 µM i-CDK9): 85% | % Retention on Solid Support (p38-alpha; 10 µM i-CDK9): 100% | remaining binding at 1 µM ([5]; 1 µM i-CDK9): 100% | remaining binding at 10 µM ([5]; 10 µM i-CDK9): 100% | remaining binding at 1 µM (CDKL3; 1 µM i-CDK9): 44% | remaining binding at 10 µM (CDKL3; 10 µM i-CDK9): 23%

From article PMC4490784, “Compensatory induction of MYC expression by sustained CDK9 inhibition via a BRD4-dependent mechanism” (eLife, 2015)
